The test system of data set [1] is HSV-1. The data set is described as follows: Inhibition of HSV-1 viral replication in cell culture. The format is cell-based, herpes simplex virus type 1.
The subject of data set [2] is E1b (SP1 binding region of adenovirus E1b). The data set is described as follows: Inhibition of transcription of E1b. Conditions: as sense oligonucleotide, simulates the SP1 binding region.

{Psoralen} = psoralen conjugate attached via phosphate

On to “"psoralen"-pGpGpTpGpTpTpTpGpGpGpGpGpTpTpGpG(5'5'S)GpTpTpGpGpGpGpT2pTpGpTpGpTpGp-"psoralen") (chain 1 NGTTGGGGGTTTGTGN; chain 2 NTTGGGGTTGTGTN; 3' {Psoralen}, sugars by position, backbone and the base at N not given here; two pieces joined 5'-5' through S linker) [IA-4, oligonucleotide modified with psoralen at both 3'-ends]”, for which, in data set [1] (target: origin of replication (oriL) of the HSV-1 genome), the “inhibition of HSV-1 replication by triplex formation” value was “inhibits replication of the latter by triplex formation”.
In the case of “d(GpGpGpCpGpGpGpGpCpTpTpApApApGpG(3'5'S)CpCpTpTpTpApApGpCpCpCpCpGpCpCpCp-O- -(CH2 CH2 O)8 (CH2)13 CH3) (DNA GGGCGGGGCTTAAAGNNCTTTAAGCCCCGCCN; chemistry not fully specified) [IB-2, 3'-modified oligonucleotide analog with a 3'5'-spacer]”, the “inhibition of transcription of E1b” value in data set [2] is “inhibits the transcription of E1b”.
For “d(p-Nitrophenylethyl-2-oxy-pC(5'5'p)GpTpCpCpApTpGpTpCpGpGpCpApApApCpApGpCpTp-O-i-C3 H7) (DNA NNTCCATGTCGGCAAACAGCN; chemistry not fully specified) [IA-2]”, in data set [1] (cell culture, sequence I directed against mRNA of transactivator protein Vmw65, sequences II and III against splice-acceptor region of IE4/5 precursor mRNA), the “inhibition of HSV-1 replication” value is “inhibit HSV-1 replication”.
